Assay results reported in patent publication US10301288B2, “Kinase inhibitors” (Topivert Pharma Limited, priority 2013, dated 2019).

Legend:
GSK3α = GSK3α (Homo sapiens (Human), UniProt P49840); assay: GSK 3α enzyme inhibition (FRET, Method 2); type: biochemical
Procedure: (§1) The enzyme inhibitory activities of compounds disclosed herein are determined by FRET using synthetic peptides labelled with both donor and acceptor fluorophores (Z-LYTE, Invitrogen Ltd., Paisley, UK).
The inhibitory activities of compounds of the invention against the GSK 3α enzyme isoform (Invitrogen), are evaluated by determining the level of activation/phosphorylation of the target peptide. The GSK3-α protein (500 ng/mL, 2.5 μL) is mixed with the test compound (2.5 μL at either 4 μg/mL, 0.4 μg/mL, 0.04 μg/mL, or 0.004 μg/mL) for 2 hr at RT. The FRET peptide (8 μM, 2.5 μL), which is a phosphorylation target for GSK3α, and ATP (40 μM, 2.5 μL) are then added to the enzyme/compound mixture and the resulting mixture incubated for 1 hr. Development reagent (protease, 5 μL) is added for 1 hr prior to detection in a fluorescence microplate reader (Varioskan® Flash, ThermoFisher Scientific).
(§2) In all cases, the site-specific protease cleaves non-phosphorylated peptide only and eliminates the FRET signal. Phosphorylation levels of each reaction are calculated using the ratio of coumarin emission (donor) over fluorescein emission (acceptor), for which high ratios indicate high phosphorylation and low ratios indicate low phosphorylation levels.

Syk = Syk (Homo sapiens (Human), UniProt P43405); assay: Syk enzyme inhibition (FRET); type: biochemical
Procedure: as §1
(§3) The inhibitory activities of compounds of the invention against c-Src and Syk enzymes (Invitrogen), are evaluated in a similar fashion to that described hereinabove. The relevant enzyme (3000 ng/mL or 2000 ng/mL respectively, 2.5 μL) is incubated with the test compound (either 4 μg/mL, 0.4 μg/mL, 0.04 μg/mL, or 0.004 μg/mL, 2.5 μL each) for 2 hr at RT. The FRET peptides (8 μM. 2.5 μL), and appropriate ATP solutions (2.5 μL, 800 μM for c-Src, and 60 μM ATP for Syk) are then added to the enzymes/compound mixtures and incubated for 1 hr. Development reagent (protease, 5 μL) is added for 1 hr prior to detection in a fluorescence microplate reader (Varioskan® Flash, ThermoFisher Scientific).
as §2

HT29 cells = assay: (d) IL-1β-induced IL-8 release in HT29 cells; type: cell-based; settings: Homo sapiens, HT-29, read-out: IC50 for Inhibition of Cytokine Release, IL-8
Procedure: HT29 cells, a human colon adenocarcinoma cell line, are plated in a 96 well plate (24 hrs) and pre-treated with compounds at the desired concentration for 2 hours before addition of 5 ng/ml of IL-1β (Abeam) for 24 hours. Supernatants are harvested for IL-8 quantification by Sandwich ELISA (Duo-set, R&D System). The IC50 is determined from the dose response curve.

c-Src = c-Src (Homo sapiens (Human), UniProt P12931); assay: c-Src enzyme inhibition (FRET); type: biochemical
Chain of c-Src (P12931 whole entry, looked up): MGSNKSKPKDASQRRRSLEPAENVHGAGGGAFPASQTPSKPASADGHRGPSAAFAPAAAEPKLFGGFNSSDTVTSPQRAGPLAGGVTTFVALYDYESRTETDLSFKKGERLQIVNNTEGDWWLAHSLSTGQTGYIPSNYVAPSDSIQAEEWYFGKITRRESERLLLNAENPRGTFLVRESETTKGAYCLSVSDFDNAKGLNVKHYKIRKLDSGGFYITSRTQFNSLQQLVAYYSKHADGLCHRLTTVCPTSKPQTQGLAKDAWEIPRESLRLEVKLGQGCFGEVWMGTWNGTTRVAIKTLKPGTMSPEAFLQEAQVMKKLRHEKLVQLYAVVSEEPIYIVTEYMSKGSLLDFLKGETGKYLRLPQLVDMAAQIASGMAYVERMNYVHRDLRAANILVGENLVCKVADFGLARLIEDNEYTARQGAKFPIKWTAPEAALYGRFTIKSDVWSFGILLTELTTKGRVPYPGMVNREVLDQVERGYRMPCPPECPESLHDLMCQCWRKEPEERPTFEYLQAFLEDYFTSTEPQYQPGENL
Procedure: as §1, §3, §2

PBMCs = assay: (b) LPS-induced TNFα/IL-8 release in PBMC cells; type: cell-based; settings: Homo sapiens, read-out: IC50 for Inhibition of Cytokine Release, IL-8
Procedure: Peripheral blood mononuclear cells (PBMCs) from healthy subjects are separated from whole blood using a density gradient (Lymphoprep, Axis-Shield Healthcare). The PBMCs are seeded in 96 well plates and treated with compounds at the desired concentration for 2 hours before addition of 1 ng/ml LPS (Escherichia Coli 0111:B4 from Sigma Aldrich) for 24 hours under normal tissue culture conditions (37° C., 5% CO2). The supernatant is harvested for determination of IL-8 and TNFα concentrations by sandwich ELISA (Duo-set, R&D systems) and read on the fluorescence microplate reader (Varioskan® Flash, ThermoFisher Scientific).

p38 MAPKα = p38 MAPKα (Homo sapiens (Human), UniProt Q16539); assay: p38 MAPKα enzyme inhibition (FRET, Method 2); type: biochemical
Chain of p38 MAPKα (Q16539 whole entry): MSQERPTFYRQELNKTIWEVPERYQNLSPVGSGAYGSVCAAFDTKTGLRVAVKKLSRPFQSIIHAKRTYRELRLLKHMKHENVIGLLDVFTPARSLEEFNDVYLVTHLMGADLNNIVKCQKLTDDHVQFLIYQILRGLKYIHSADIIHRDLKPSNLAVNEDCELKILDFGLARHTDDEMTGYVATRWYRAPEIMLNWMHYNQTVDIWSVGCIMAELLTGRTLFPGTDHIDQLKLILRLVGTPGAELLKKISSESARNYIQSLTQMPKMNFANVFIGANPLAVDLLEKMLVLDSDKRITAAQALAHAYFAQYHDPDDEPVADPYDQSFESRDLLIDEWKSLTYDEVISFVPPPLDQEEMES
Procedure: as §1
The inhibitory activities of test compounds against the p38 MAPKα isoform (MAPK14: Invitrogen), are evaluated indirectly by determining the level of activation/phosphorylation of the down-stream molecule, MAPKAP-K2. The p38 MAPKα protein (80 ng/mL, 2.5 μL) is mixed with the test compound (2.5 μL of either 4 μg/mL, 0.4 μg/mL, 0.04 μg/mL or 0.004 μg/mL) for 2 hr at RT. […] The mixture is incubated for 1 hr at RT. Development reagent (protease, 5 μL) is added for 1 hr prior to detection in a fluorescence microplate reader (Varioskan® Flash, ThermoFisher Scientific).
as §2

β-catenin = assay: (m) Accumulation of β catenin in d-U937 cells; type: cell-based, human; settings: Reference Compound at 1 μg/mL defined as 100%
Procedure: U937 cells, a human monocytic cell line, are differentiated into macrophage-type cells by incubation with PMA; (100 ng/mL) for between 48 to 72 hr. The cells are then incubated with either final concentrations of test compound or vehicle for 18 hr. The induction of β-catenin by the test compounds is stopped by replacing the media with 4% formaldehyde solution. Endogenous peroxide activity is neutralised by incubating with quenching buffer (100 μL, 0.1% sodium azide, 1% H2O2 in PBS with 0.05% Tween-20) for 20 min. The cells are washed with washing buffer (200 μL; PBS containing 0.05% Tween-20) and incubated with blocking solution (200 μL; 5% milk in PBS) for 1 hr, re-washed with washing buffer (200 μL) and then incubated overnight with anti-β-catenin antibody solution (50 μL) in 1% BSA/PBS (BD, Oxford, UK).
After washing with washing buffer (3×200 μL; PBS containing 0.05% Tween-20), cells are incubated with an HRP-conjugated secondary antibody solution (100 μL) in 1% BSA/PBS (Dako, Cambridge, UK) and the resultant signal is determined colourimetrically (OD: 450 nm with a reference wavelength of 655 nm) using TMB substrate (50 μL; R&D Systems, Abingdon, UK). This reaction is stopped by addition of 1N H2SO4 solution (50 μL). Cells are then washed with washing buffer and 2% crystal violet solution (50 μL) is applied for 30 min. After washing with washing buffer (3×200 μL), 1% SDS (100 μL) is added to each well and the plates are shaken lightly for 1 hr prior to measuring the absorbance at 595 nm (Varioskan® Flash, Thermo-Fisher Scientific).
The measured OD450-655 readings are corrected for cell number by dividing the OD450-655 by the OD595 readings.

kinases = assay: KinomeScan selectivity scores / number of hits; type: binding
Procedure: These assays may be conducted by DiscoverX (formerly Ambit; San Diego, Calif.). The percentage inhibition produced by incubation with a test compound may be calculated relative to the non-inhibited control.

Chain of GSK3α (P49840 whole entry): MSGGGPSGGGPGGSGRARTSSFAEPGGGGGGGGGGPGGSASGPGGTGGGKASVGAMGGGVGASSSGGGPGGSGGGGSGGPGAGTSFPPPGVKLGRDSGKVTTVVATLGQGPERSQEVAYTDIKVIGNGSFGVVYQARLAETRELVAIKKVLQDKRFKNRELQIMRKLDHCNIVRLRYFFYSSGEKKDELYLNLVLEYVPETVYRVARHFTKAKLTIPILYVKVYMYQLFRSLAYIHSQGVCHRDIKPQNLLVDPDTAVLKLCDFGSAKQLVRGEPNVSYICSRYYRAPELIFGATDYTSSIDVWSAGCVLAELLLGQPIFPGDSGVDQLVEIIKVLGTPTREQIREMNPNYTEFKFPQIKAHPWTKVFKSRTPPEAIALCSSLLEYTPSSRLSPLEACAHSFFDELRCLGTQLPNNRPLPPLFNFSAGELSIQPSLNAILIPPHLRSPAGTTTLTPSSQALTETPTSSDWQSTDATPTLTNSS

Structure (SMILES): C#Cc1cc(Nc2cc(Oc3ccc(NC(=O)Nc4cc(C(C)(C)C)nn4-c4ccc(N(C)C)cc4)c4ccccc34)ccn2)cc(C(=O)NCCOCCOCCOC)c1 [Example 11, 3-((4-((4-(3-(3-(tert-Butyl)-1-(4-(dimethylamino)phenyl)-1H-pyrazol-5-yl)ureido)-naphthalen-1-yl)oxy)pyridin-2-yl)amino)-5-ethynyl-N-(2-(2-(2-methoxyethoxy)ethoxy)-ethyl)benzamide]
- IC50 (GSK3α): 12100 nM
- IC50 (Syk): > 1210 nM
- IC50 (HT29 cells): 6.2 nM
- IC50 (c-Src): > 1210 nM
- IC50 (PBMCs): 4.3 nM
- IC50 (p38 MAPKα): 766 nM

Structure (SMILES): C#Cc1cc(Nc2nccc(Oc3ccc(NC(=O)Nc4cc(C(C)(C)C)nn4-c4ccc(C)cc4)c4c3CCCC4)n2)cc(C(=O)NCCOCCOCCOC)c1 [Example 12, 3-((4-((4-(3-(3-(tert-Butyl)-1-(p-tolyl)-1H-pyrazol-5-yl)ureido)-5,6,7,8-tetrahydronaphthalen-1-yl)oxy)pyrimidin-2-yl)amino)-5-ethynyl-N-(2-(2-(2-methoxyethoxy)-ethoxy)ethyl)benzamide]
- IC50 (GSK3α): 12500 nM
- IC50 (HT29 cells): 10.9 nM
- IC50 (PBMCs): 11.8 nM

Structure (SMILES): C#Cc1cc(Nc2nccc(Oc3ccc(NC(=O)Nc4cc(C(C)(C)C)nn4-c4ccc(OC)cc4OC)c4ccccc34)n2)cc(C(=O)NCCOCCOCCOC)c1 [Example 13, 3-((4-((4-(3-(3-(tert-Butyl)-1-(2,4-dimethoxyphenyl)-1H-pyrazol-5-yl)ureido)naphthalen-1-yl)oxy)pyrimidin-2-yl)amino)-5-ethynyl-N-(2-(2-(2-methoxyethoxy)ethoxy)ethyl)-benzamide]
- IC50 (GSK3α): 2130 nM
- IC50 (Syk): 123 nM
- IC50 (HT29 cells): 3.6 nM
- IC50 (c-Src): 21 nM
- % β-catenin induction (β-catenin; 1 μg/mL): −5%
- % β-catenin induction (β-catenin; 5 μg/mL): −2%
- % β-catenin induction (β-catenin; 10 μg/mL): −4%
- IC50 (PBMCs): 4.6 nM
- IC50 (p38 MAPKα): 370 nM

Structure (SMILES): C#Cc1cc(Nc2nccc(Oc3ccc(NC(=O)Nc4cc(C(C)(C)C)nn4-c4cccc(CP(C)(C)=O)c4)c4ccccc34)n2)cc(C(=O)NCCOCCOCCOC)c1 [Example 14, 3-((4-((4-(3-(3-(tert-Butyl)-1-(3-((dimethylphosphoryl)methyl)phenyl)-1H-pyrazol-5-yl)-ureido)naphthalen-1-yl)oxy)pyrimidin-2-yl)amino)-5-ethynyl-N-(2-(2-(2-methoxyethoxy)-ethoxy)ethyl)benzamide]
- IC50 (GSK3α): 402 nM
- IC50 (Syk): 20 nM
- IC50 (HT29 cells): 1.5 nM
- IC50 (c-Src): 4 nM
- IC50 (PBMCs): 1.5 nM
- IC50 (p38 MAPKα): 88 nM

Structure (SMILES): COCCOCCOCCNC(=O)c1cc(Nc2cc(Oc3ccc(NC(=O)Nc4cc(C(C)(C)C)nn4-c4cccc(CP(C)(C)=O)c4)c4ccccc34)ccn2)cc(OC)c1 [Example 15, 3-((4-((4-(3-(3-(tert-Butyl)-1-(3-((dimethylphosphoryl)methyl)phenyl)-1H-pyrazol-5-yl)-ureido)naphthalen-1-yl)oxy)pyridin-2-yl)amino)-5-methoxy-N-(2-(2-(2-methoxyethoxy)-ethoxy)ethyl)benzamide]
- IC50 (GSK3α): 3200 nM
- IC50 (Syk): 57 nM
- IC50 (HT29 cells): 2 nM
- IC50 (c-Src): 18 nM
- % β-catenin induction (β-catenin; 1 μg/mL): 4%
- % β-catenin induction (β-catenin; 5 μg/mL): 11%
- % β-catenin induction (β-catenin; 10 μg/mL): 27%
- IC50 (PBMCs): 1.2 nM
- IC50 (p38 MAPKα): 34 nM

Structure (SMILES): COCCOCCOCCNC(=O)c1cc(Nc2nccc(Oc3ccc(NC(=O)Nc4cc(C(C)(C)C)nn4-c4ccc(N(C)C)cc4)c4ccccc34)n2)cc(OC)c1 [Example 16, 3-((4-((4-(3-(3-(tert-Butyl)-1-(4-(dimethylamino)phenyl)-1H-pyrazol-5-yl)ureido)-naphthalen-1-yl)oxy)pyrimidin-2-yl)amino)-5-methoxy-N-(2-(2-(2-methoxyethoxy)-ethoxy)ethyl)benzamide]
- IC50 (GSK3α): 646 nM
- IC50 (Syk): 27 nM
- IC50 (c-Src): 15 nM
- IC50 (PBMCs): 2.7 nM

Structure (SMILES): C#Cc1cc(Nc2nccc(Oc3ccc(NC(=O)Nc4cc(C(C)(C)C)nn4-c4ccc(OC)cc4C)c4ccccc34)n2)cc(C(=O)NCCOCCOCCOC)c1 [Example 17, 3-((4-((4-(3-(3-(tert-Butyl)-1-(4-methoxy-2-methylphenyl)-1H-pyrazol-5-yl)ureido)-naphthalen-1-yl)oxy)pyrimidin-2-yl)amino)-5-ethynyl-N-(2-(2-(2-methoxyethoxy)-ethoxy)ethyl)benzamide]
- IC50 (GSK3α): 12100 nM
- IC50 (PBMCs): 5 nM

Structure (SMILES): COCC(=O)Nc1cc(Oc2ccc(NC(=O)Nc3cc(C(C)(C)C)nn3-c3ccc(C)cc3)c3ccccc23)ccn1 [Reference Compound, N-(4-(4-(3-(3-tert-butyl-1-p-tolyl-1H-pyrazol-5-yl)ureido)naphthalen-1-yloxy)pyridin-2-yl)-2-methoxyacetamide, reference compound]
- KinomeScan S(1) number of hits (kinases; 50 nM): 7
- KinomeScan S(10) number of hits (kinases; 50 nM): 32
- KinomeScan S(35) number of hits (kinases; 50 nM): 67
- KinomeScan S(1) number of hits (kinases; 500 nM): 45
- KinomeScan S(10) number of hits (kinases; 500 nM): 105
- KinomeScan S(35) number of hits (kinases; 500 nM): 143
- % β-catenin induction (β-catenin; 1 μg/mL): 100%
